The source made the active and inactive calls. The rule behind the calls is not given here.

For 59 compounds, Effect results are on record in ChEMBL document CHEMBL1142667, “Modulation of MRP-1-mediated multidrug resistance by indomethacin analogues” (J Med Chem, 2005).

For the first test, the system named is T98G. Briefly: Effect of compound (10 uM) on doxorubicin-induced cytotoxicity towards T98G cell line expressing multidrug resistance associated protein 1 (MRP-1); Toxic. Format: functional, cell-based. The note with it: Homo sapiens.
`Cc1c(Cc2ccccc2)c2cc(S(=O)(=O)O)ccc2n1C(=O)c1ccco1`: the Effect entry is “Toxic”.

Take `CCOC(=O)CCc1c(C)n(C(=O)c2cccs2)c2ccc(OC)cc12`: the Effect entry is “Toxic”.

In the case of `CCCCCCCCCCc1c(C)n(C(=O)c2ccc(-c3ccccc3)cc2)c2ccc(S(=O)(=O)O)cc12`, the Effect result is “Toxic”.

For `Cc1c(CCCC(=O)O)c2cc(S(=O)(=O)O)ccc2n1C(=O)c1ccc(Cl)cc1`, the Effect result is “Toxic”.

As to `CN1CCc2c(c3cc(S(=O)(=O)O)ccc3n2C(=O)c2ccc(Cl)cc2)C1`, the Effect entry was “Toxic”.

The test system of a further test is T98G. Briefly: Effect of compound (10 uM) on doxorubicin-induced cytotoxicity towards T98G cell line expressing multidrug resistance associated protein 1 (MRP-1); Active. The note with it: Homo sapiens. The class given is functional, cell-based.
Consider `COc1ccc2c(c1)c(CCCC(=O)O)c(C)n2C(=O)c1ccccn1`, for which the Effect entry is “Active”.

`CCCCCCCCCCc1c(C)n(C(=O)c2ccc(Cl)cc2)c2ccc(C(=O)O)cc12`: the Effect result was “Active”.

Take `O=C(c1ccccn1)n1c2c(c3cc(S(=O)(=O)O)ccc31)CSCC2`: the Effect entry was “Active”.

Consider `COc1ccc2c(c1)c(CCC(=O)O)c(C)n2C(=O)c1ccc(N(C)C)cc1`, for which the Effect entry is “Active”.

With `CCOC(=O)CCCc1c(C)n(C(=O)c2ccc(N(C)C)cc2)c2ccc(OC)cc12`, the Effect entry was “Active”.

In the case of `Cc1c(CCCC(=O)O)c2cc(C(=O)O)ccc2n1C(=O)c1ccc(Cl)cc1`, the Effect entry is “Active”.

Turning to `Cc1c(Cc2ccc(O)cc2)c2cc(S(=O)(=O)O)ccc2n1C(=O)c1ccc(Cl)cc1`, the Effect entry was “Active”.

`O=C(c1ccc(-c2ccccc2)cc1)n1c2c(c3cc(S(=O)(=O)O)ccc31)CSCC2`: the Effect entry was “Active”.

Take `COc1ccc2c(c1)c(CC(=O)O)c(C)n2C(=O)c1ccc(Cl)cc1`: the Effect entry is “Active”.

Turning to `COc1ccc2c(c1)c(CCCC(=O)O)c(C)n2C(=O)c1ccc(N(C)C)cc1`, the Effect result was “Active”.

For `COc1ccc2c(c1)c(CC(=O)O)c(C)n2C(=O)c1ccc(N(C)C)cc1`, the Effect result was “Active”.

Regarding `O=C(c1ccccc1)N1CCc2c(c3cc(S(=O)(=O)O)ccc3n2C(=O)c2ccc(-c3ccccc3)cc2)C1`, the Effect result is “Active”.

In the case of `COc1ccc2c(c1)c(CCCC(=O)O)c(C)n2C(=O)c1cccs1`, the Effect entry is “Active”.

Take `COc1ccc2c(c1)c(CC(=O)O)c(C)n2C(=O)c1ccc(C)cc1`: the Effect entry was “Active”.

As to `O=C(c1ccccn1)n1c2c(c3cc(S(=O)(=O)O)ccc31)CCCC2`, the Effect result is “Active”.

As to `COc1ccc2c(c1)c(CC(=O)O)c(C)n2C(=O)c1ccc(-c2ccccc2)cc1`, the Effect entry is “Active”.

As for `COc1ccc2c(c1)c(CC(=O)O)c(C)n2C(=O)c1ccc(F)cc1`, the Effect result was “Active”.

As for `O=C(c1ccc(-c2ccccc2)cc1)n1c2c(c3cc(S(=O)(=O)O)ccc31)CCCC2`, the Effect result is “Active”.

On to `COc1ccc2c(c1)c(CC(=O)O)c(C)n2C(=O)c1cccs1`, for which the Effect entry is “Active”.

`O=C(c1ccccc1)N1CCc2c(c3cc(S(=O)(=O)O)ccc3n2C(=O)c2ccc(Cl)cc2)C1`: the Effect result is “Active”.

For a further test, the system named is T98G. As to the kind of experiment: Effect of compound (10 uM) on doxorubicin-induced cytotoxicity towards T98G cell line expressing multidrug resistance associated protein 1 (MRP-1). Format: functional, cell-based. The following applies: Homo sapiens.
Take `COc1ccc2c(c1)c(CCC(=O)O)c(C)n2C(=O)c1ccc(-c2ccccc2)cc1`: the Effect entry was “Active”.

Another test relates to T98G. As to the kind of experiment: Effect of compound (10 uM) on doxorubicin-induced cytotoxicity towards T98G cell line expressing multidrug resistance associated protein 1 (MRP-1); Very active. The following applies: Homo sapiens. Format: functional, cell-based.
Turning to `O=C(O)c1ccc2c(c1)c1c(n2C(=O)c2ccc(Cl)cc2)CCCC1`, the Effect result is “Active”.

For `COc1ccc2c(c1)c(CC(=O)O)c(C)n2C(=O)c1ccc(Br)cc1`, the Effect result is “Active”.

`COc1ccc2c(c1)c(CCCC(=O)O)c(C)n2C(=O)c1ccc(Br)cc1`: the Effect entry is “Active”.

For the compound `Cc1ccc2c(c1)c(CCCC(=O)O)c(C)n2C(=O)c1ccc(Cl)cc1`, the Effect entry is “Active”.

On to `O=C(O)c1ccc2c(c1)c1c(n2C(=O)c2ccc(Cl)cc2)CCSC1`, for which the Effect result was “Active”.

On to `Cc1ccc2c(c1)c(CCC(=O)O)c(C)n2C(=O)c1ccc(Cl)cc1`, for which the Effect entry is “Active”.

Consider `COc1ccc2c(c1)c(CCC(=O)O)c(C)n2C(=O)c1ccc(Br)cc1`, for which the Effect entry is “Active”.

`COc1ccc2c(c1)c(CCCC(=O)O)c(C)n2C(=O)c1ccc(Cl)cc1`: the Effect result was “Active”.

For `COc1ccc2c(c1)c(CCC(=O)O)c(C)n2C(=O)c1ccc(Cl)cc1`, the Effect entry was “Active”.

A further test has as its system T98G. Briefly: Effect of compound (10 uM) on doxorubicin-induced cytotoxicity towards T98G cell line expressing multidrug resistance associated protein 1 (MRP-1); Inactive. The class given is functional, cell-based. The note with it: Homo sapiens.
In the case of `CCc1c(C)n(C(=O)c2ccco2)c2ccc(S(=O)(=O)O)cc12`, the Effect result is “inactive”.

Consider `O=C(c1ccco1)n1c2c(c3cc(S(=O)(=O)O)ccc31)CSCC2`, for which the Effect entry was “inactive”.

With `Cc1c(Cc2ccccc2)c2cc(S(=O)(=O)O)ccc2n1C(=O)c1ccc(Cl)cc1`, the Effect entry is “inactive”.

With `Cc1c(CCC(=O)O)c2cc(S(=O)(=O)O)ccc2n1C(=O)c1ccco1`, the Effect result was “inactive”.

For `CCCCCCCCCCc1c(C)n(C(=O)c2ccco2)c2ccc(S(=O)(=O)O)cc12`, the Effect result was “inactive”.

For the compound `COC(=O)CCc1c(C)n(C(=O)c2ccco2)c2ccc(S(=O)(=O)O)cc12`, the Effect entry was “inactive”.

With `CCCCCCCCCCc1c(C)n(C(=O)c2ccc(Cl)cc2)c2ccc(S(=O)(=O)O)cc12`, the Effect result was “inactive”.

Regarding `COC(=O)CCCc1c(C)n(C(=O)c2ccco2)c2ccc(S(=O)(=O)O)cc12`, the Effect result is “inactive”.

Regarding `CN1CCc2c(c3cc(S(=O)(=O)O)ccc3n2C(=O)c2ccc(-c3ccccc3)cc2)C1`, the Effect entry is “inactive”.

Take `Cc1c(Cc2ccccc2)c2cc(S(=O)(=O)O)ccc2n1C(=O)c1ccc(-c2ccccc2)cc1`: the Effect entry was “inactive”.

Regarding `O=C(c1ccccc1)N1CCc2c(c3cc(S(=O)(=O)O)ccc3n2C(=O)c2ccco2)C1`, the Effect entry is “inactive”.

Consider `COC(=O)CCCc1c(C)n(C(=O)c2ccc(Cl)cc2)c2ccc(S(=O)(=O)O)cc12`, for which the Effect result is “inactive”.

On to `O=C(c1ccco1)n1c2c(c3cc(S(=O)(=O)O)ccc31)CCCC2`, for which the Effect result is “inactive”.

Take `COc1ccc2c(c1)c(CCC(=O)O)c(C)n2C(=O)c1ccccn1`: the Effect result was “inactive”.

Consider `O=C(c1ccc(Cl)cc1)n1c2c(c3cc(S(=O)(=O)O)ccc31)CCCCCC2`, for which the Effect result is “inactive”.

As to `O=C(c1ccc(Cl)cc1)n1c2c(c3cc(S(=O)(=O)O)ccc31)CCCC2`, the Effect result was “inactive”.

For the compound `COc1ccc2c(c1)c(CC(=O)O)c(C)n2C(=O)c1ccccn1`, the Effect result is “inactive”.

Regarding `COc1ccc2c(c1)c(CC(=O)O)c(C)n2C(=O)c1ccco1`, the Effect entry is “inactive”.

`CCc1c(C)n(C(=O)c2ccc(Cl)cc2)c2ccc(S(=O)(=O)O)cc12`: the Effect result was “inactive”.

As to `Cc1c(Cc2ccc(O)cc2)c2cc(S(=O)(=O)O)ccc2n1C(=O)c1ccc(-c2ccccc2)cc1`, the Effect entry is “inactive”.

For `Cc1c(CC(=O)O)c2cc(Br)ccc2n1C(=O)c1ccco1`, the Effect entry was “inactive”.

As for `O=C(c1ccc(Cl)cc1)n1c2c(c3cc(S(=O)(=O)O)ccc31)CSCC2`, the Effect result was “inactive”.

`Cc1c(CCCC(=O)O)c2cc(S(=O)(=O)O)ccc2n1C(=O)c1ccco1`: the Effect result is “inactive”.

In the case of `Cc1c(CCCC(=O)O)c2cc(S(=O)(=O)O)ccc2n1C(=O)c1ccc(-c2ccccc2)cc1`, the Effect result was “inactive”.
